Reference: patent US20250186456A1, “PYRIMIDINE-FUSED CYCLIC COMPOUND AND PREPARATION METHOD AND USE THEREOF” (Genfleet Therapeutics (Shanghai) Inc., priority 2021, published 2025)
Read-outs that look alike come from different tables or passages of the source. Blank lines part the entries; values can stand above or below the molecule they belong to.

Experiments:
Format in all cases: cell-based, human
[1] = test system: p-ERK in AGS cells (KRAS G12D mutation); experiment: Cell p-ERK assay (HTRF, Advance ERK phospho-T202/Y204 kit); conditions: AGS cells, 3 hours incubation with compound, HTRF, read-out: AGS p-ERK IC50
Method in brief: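 AGS cells (endogenous KRAS G12D) seeded at ~20000 cells/well overnight, then treated 3 h with 3.16-fold compound dilutions, 0.1% DMSO final. Lysates assayed for phospho-T202/Y204 ERK by HTRF after 4 h antibody incubation; inhibition vs DMSO and blank, IC50 by four-parameter fit.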

AGS cells (KRAS G12D) = experiment: Cell proliferation inhibition assay, 3D, CellTiter-Glo 3D, AGS; conditions: AGS 3D sphere model, 5 days incubation
Method in brief: (§1)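 Spheroids (800 AsPC-1 or 400 AGS cells/well; RPMI-1640 or F-12K with 10% FBS) formed overnight, then were dosed on day 2 with a 3.16-fold series at 0.1% DMSO. After 5 days, viability was read by CellTiter-Glo 3D luminescence, and IC50 came from four-parameter fits of inhibition versus DMSO control and medium blank.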

[2] = test system: AsPC-1 cells (KRAS G12D mutation); experiment: Cell proliferation inhibition assay, 3D, CellTiter-Glo 3D, AsPC-1; conditions: AsPC-1 3D sphere model, 5 days incubation
Method in brief: as §1

SMILES: C#Cc1c(F)ccc2cccc(-c3nc4c5c(nc(OCC67CCCN6C6(CC6)CC7)nc5c3F)N3C[C@H]5CC[C@H](N5)[C@H]3[C@H](C)O4)c12 (stereo partly drawn) [Example Z631, (5S,5aS,6S,9R)-2-(8-Ethynyl-7-Fluoronaphthalen-1-Yl)-1-Fluoro-5-Methyl-12-((Tetrahydrospiro[Cyclopropane-1,3′-Pyrrolizin]-7a′ (5′H)-Yl)Methoxy)-5a,6,7,8,9,10-Hexahydro-5H-4-Oxa-3,10a,11,13,14-Pentaaza-6,9-Methanonaphtho[1,8-Ab]Heptalene]
IC50 ([1]; Homo sapiens): 91.9 nM | IC50 (AGS cells (KRAS G12D); Homo sapiens, 120 h): 201 nM | IC50 ([2]; Homo sapiens, ASPC1, 120 h): 254 nM

SMILES: C#Cc1cccc2cc(N)cc(-c3nc4c5c(nc(OCC67CCCN6CC(F)(F)C7)nc5c3F)N3C[C@H]5CC[C@H](N5)[C@H]3[C@H](C)O4)c12 (stereo partly drawn) [Example Z706, 4-((5S,5aS,6S,9R)-12-((2,2-difluorotetrahydro-1H-pyrrolizin-7a (5H)-yl)methoxy)-1-fluoro-5-methyl-5a,6,7,8,9,10-hexahydro-5H-4-oxa-3,10a,11,13,14-pentaaza-6,9-methanonaphtho[1,8-ab]heptalen-2-yl)-5-ethynylnaphthalen-2-amine]
IC50 ([1]; Homo sapiens): 6.64 nM | IC50 (AGS cells (KRAS G12D); Homo sapiens, 120 h): 26 nM | IC50 ([2]; Homo sapiens, ASPC1, 120 h): 37.9 nM

SMILES: C#Cc1c(F)ccc2cccc(-c3nc4c5c(nc(OC[C@@]67CCCN6C[C@@H]6C[C@@H]67)nc5c3F)N3C[C@H]5CC[C@H](N5)[C@H]3[C@H](C)O4)c12 (single isomer, unassigned) [Example Z626-2]
IC50 ([1]; Homo sapiens): 20.6 nM | IC50 (AGS cells (KRAS G12D); Homo sapiens, 120 h): 28.2 nM | IC50 ([2]; Homo sapiens, ASPC1, 120 h): 56.6 nM

SMILES: C#Cc1c(F)ccc2cccc(-c3nc4c5c(nc(OCC67C[C@@H](OC)CN6CCC7=C)nc5c3F)N3C[C@H]5CC[C@H](N5)[C@H]3[C@H](C)O4)c12 (stereo partly drawn) [Example Z688, (5S,5aS,6S,9R)-2-(8-Ethynyl-7-Fluoronaphthalen-1-Yl)-1-Fluoro-12-(((6R)-6-Methoxy-1-Methylenetetrahydro-1H-Pyrrolizin-7a (5H)-Yl)Methoxy)-5-Methyl-5a,6,7,8,9,10-Hexahydro-5H-4-Oxa-3,10a,11,13,14-Pentaaza-6,9-Methanonaphtho[1,8-Ab]Heptalene]
IC50 ([1]; Homo sapiens): 8.77 nM | IC50 (AGS cells (KRAS G12D); Homo sapiens, 120 h): 20 nM | IC50 ([2]; Homo sapiens, ASPC1, 120 h): 39.2 nM

SMILES: C#Cc1c(F)ccc2cccc(-c3nc4c5c(nc(OCC67CCCN6CCC7=C)nc5c3F)N3C[C@H]5CC[C@H](N5)[C@H]3[C@H](C)O4)c12 (stereo partly drawn) [Example Z600, (5S,5aS,6S,9R)-2-(8-ethynyl-7-fluoronaphthalen-1-yl)-1-fluoro-5-methyl-12-((1-methylenetetrahydro-1H-pyrrolizin-7a (5H)-yl)methoxy)-5a,6,7,8,9,10-hexahydro-5H-4-oxa-3,10a, 11, 13, 14-pentaaza-6,9-methanonaphtho[1,8-ab]heptalene]
IC50 ([1]; Homo sapiens): 18.3 nM | IC50 (AGS cells (KRAS G12D); Homo sapiens, 120 h): 15.3 nM | IC50 ([2]; Homo sapiens, ASPC1, 120 h): 64.8 nM

IC50 [1]: 27.6 nM | IC50 (AGS cells (KRAS G12D)): 10.8 nM | IC50 [2]: 22.3 nM
SMILES: C#Cc1c(F)ccc2cccc(-c3nc4c5c(nc(OCC67CC(=C)CN6CC6(CC6)C7)nc5c3F)N3C[C@H]5CC[C@H](N5)[C@H]3[C@H](C)O4)c12 (stereo partly drawn) [Example Z599]

IC50 [1]: 1.16 nM | IC50 (AGS cells (KRAS G12D)): 1.03 nM | IC50 [2]: 3 nM
SMILES: C[C@@H]1Oc2nc(-c3cc(N)cc4ccc(F)c(F)c34)c(F)c3nc(OCC4(CN5CCOCC5)CC4)nc(c23)N2C[C@H]3CC[C@H](N3)[C@@H]12 [Example Z719, 5,6-difluoro-4-((5S,5aS,6S,9R)-1-fluoro-S-methyl-12-((1-(morpholinomethyl)cyclopropyl)methoxy)-5a,6,7,8,9,10-hexahydro-5H-4-oxa-3,10a, 11,13,14-pentaaza-6,9-methanonaphtho[1,8-ab]heptalene-2-yl) naphthalen-2-amine]

SMILES: C#Cc1cccc2cc(N)cc(-c3nc4c5c(nc(OCC6(CO)CC6)nc5c3F)N3C[C@H]5CC[C@H](N5)[C@H]3[C@H](C)O4)c12 [Example Z701, (1-((((5S,5aS,6S,9R)-2-(3-amino-8-ethynylnaphthalen-1-yl)-1-fluoro-5-methyl-5a,6,7,8,9,10-hexahydro-5H-4-oxa-3,10a, 11,13,14-pentaaza-6,9-methanonaphtho[1,8-ab]heptalen-12-yl)oxy)methyl)cyclopropyl)methanol]
IC50 ([1]; Homo sapiens): 39.5 nM | IC50 (AGS cells (KRAS G12D); Homo sapiens, 120 h): 230 nM | IC50 ([2]; Homo sapiens, ASPC1, 120 h): 245 nM

SMILES: Cc1cc(N)c(C)c(-c2nc3c4c(nc(OCC5(CN6CCOCC6)CC5)nc4c2F)N2C[C@H]4CC[C@H](N4)[C@H]2[C@H](C)O3)c1C1CC1 [Example Z717, 4-cyclopropyl-3-((5S,5aS,6S,9R)-1-fluoro-5-methyl-12-((1-(morpholinomethyl)cyclopropyl)methoxy)-5a,6,7,8,9,10-hexahydro-5H-4-oxa-3,10a, 11,13,14-pentaaza-6,9-methanonaphtho[1,8-ab]heptalen-2-yl)-2,5-dimethylaniline]
IC50 ([1]; Homo sapiens): 14.8 nM | IC50 (AGS cells (KRAS G12D); Homo sapiens, 120 h): 29.1 nM | IC50 ([2]; Homo sapiens, ASPC1, 120 h): 50.2 nM

SMILES: C#Cc1cccc2cccc(-c3nc4c5c(nc(OC[C@@]67CCCN6C[C@H](F)C7)nc5c3F)N3C[C@H]5CC[C@H](N5)[C@H]3[C@H](C)O4)c12 [Example Z360-1, (5S,5aS,6S,9R)-2-(8-ethynylnaphthalen-1-yl)-1-fluoro-12-(((2R,7aS)-2-fluorotetrahydro-1H-pyrrolizin-7a (5H)-yl)methoxy)-5-methyl-5a,6,7,8,9,10-hexahydro-5H-4-oxa-3,10a, 11,13,14-pentaaza-6,9-methanonaphtho[1,8-ab]heptalene]
IC50 ([1]; Homo sapiens): 29.9 nM | IC50 (AGS cells (KRAS G12D); Homo sapiens, 120 h): 27.8 nM | IC50 ([2]; Homo sapiens, ASPC1, 120 h): 36.4 nM

SMILES: C#Cc1cccc2cccc(-c3nc4c5c(nc(OC[C@@]67CCCN6C[C@H](F)C7)nc5c3F)N3C[C@H]5CC[C@H](N5)[C@H]3[C@H](CC)O4)c12 [Example Z387, (5S,5aS,6S,9R)-5-ethyl-2-(8-ethynylnaphthalen-1-yl)-1-fluoro-12-(((2R,7aS)-2-fluorotetrahydro-1H-pyrrolizin-7a (5H)-yl)methoxy)-5a,6,7,8,9,10-hexahydro-5H-4-oxa-3,10a, 11,13,14-pentaaza-6,9-methanonaphtho[1,8-ab]heptalene]
IC50 ([1]; Homo sapiens): 50.2 nM | IC50 (AGS cells (KRAS G12D); Homo sapiens, 120 h): 73.3 nM | IC50 ([2]; Homo sapiens, ASPC1, 120 h): 202 nM

SMILES: C#Cc1cc(F)cc2cccc(-c3nc4c5c(nc(OCC67CC(=C)CN6CC(=C)C7)nc5c3F)N3C[C@H]5CC[C@H](N5)[C@H]3[C@H](C)O4)c12 [Example Z550, (5S,5aS,6S,9R)-12-((2,6-dimethylenetetrahydro-1H-pyrrolizin-7a (5H)-yl)methoxy)-2-(8-ethynyl-6-fluoronaphthalen-1-yl)-1-fluoro-5-methyl-5a,6,7,8,9,10-hexahydro-5H-4-oxa-3,10a, 11,13,14-pentaaza-6,9-methanonaphtho[1,8-ab]heptalene]
IC50 ([1]; Homo sapiens): 91.2 nM | IC50 (AGS cells (KRAS G12D); Homo sapiens, 120 h): 109 nM | IC50 ([2]; Homo sapiens, ASPC1, 120 h): 394 nM

SMILES: C#Cc1c(F)ccc2cccc(-c3nc4c5c(nc(OCC67CC(=C)CN6CC(=C)C7)nc5c3F)N3C[C@H]5CC[C@H](N5)[C@H]3[C@H](C)O4)c12 [Example Z388, (5S,5aS,6S,9R)-12-((2,6-dimethylenetetrahydro-1H-pyrrolizin-7a (5H)-yl)methoxy)-2-(8-ethynyl-7-fluoronaphthalen-1-yl)-1-fluoro-5-methyl-5a,6,7,8,9,10-hexahydro-5H-4-oxa-3,10a, 11, 13,14-pentaaza-6,9-methanonaphtho[1,8-ab]heptalene]
IC50 ([1]; Homo sapiens): 17.9 nM | IC50 (AGS cells (KRAS G12D); Homo sapiens, 120 h): 53.1 nM | IC50 ([2]; Homo sapiens, ASPC1, 120 h): 191 nM

SMILES: C#Cc1c(F)ccc2cccc(-c3nc4c5c(nc(OCC67CC(=C)CN6C[C@@H](OC)C7)nc5c3F)N3C[C@H]5CC[C@H](N5)[C@H]3[C@H](C)O4)c12 (stereo partly drawn) [Example Z692, (5S,5aS,6S,9R)-2-(8-ethynyl-7-fluoronaphthalen-1-yl)-1-fluoro-12-(((2S)-2-methoxy-6-methylenetetrahydro-1H-pyrrolizin-7a (5H)-yl)methoxy)-5-methyl-5a,6,7,8,9,10-hexahydro-5H-4-oxa-3,10a,11,13,14-pentaaza-6,9-methanonaphtho[1,8-ab]heptalene]
IC50 ([1]; Homo sapiens): 188 nM | IC50 (AGS cells (KRAS G12D); Homo sapiens, 120 h): 378 nM | IC50 ([2]; Homo sapiens, ASPC1, 120 h): 290 nM

IC50 [1]: 117 nM | IC50 (AGS cells (KRAS G12D)): 393 nM | IC50 [2]: 352 nM
SMILES: C#Cc1c(F)ccc2cccc(-c3nc4c5c(nc(OCC67CC(=C)CN6C[C@H](F)C7)nc5c3F)N3CC5CCC(N5)C3C(CF)O4)c12 (stereo partly drawn) [Example Z679, 2-(8-Ethynyl-7-Fluoronaphthalen-1-Yl)-1-Fluoro-12-(((2R)-2-Fluoro-6-Methylenetetrahydro-1H-Pyrrolizin-7a (5H)-Yl)Methoxy)-5-(Fluoromethyl)-5a,6,7,8,9,10-Hexahydro-5H-4-Oxa-3.10a,11,13,14-Pentaaza-6,9-Methanonaphtho[1,8-Ab]Heptalene]

SMILES: C#Cc1c(F)ccc2cccc(-c3nc4c5c(nc(OCC67CC8(CC8)CN6CC6(CC6)C7)nc5c3F)N3C[C@H]5CC[C@H](N5)[C@H]3[C@H](C)O4)c12 [Example Z628]
IC50 ([1]; Homo sapiens): 45.5 nM | IC50 (AGS cells (KRAS G12D); Homo sapiens, 120 h): 40 nM | IC50 ([2]; Homo sapiens, ASPC1, 120 h): 144 nM

SMILES: C#Cc1cccc2cc(N)nc(-c3nc4c5c(nc(OCC67CC(=C)CN6C[C@H](F)C7)nc5c3F)N3C[C@H]5CC[C@H](N5)[C@H]3[C@H](C)O4)c12 (stereo partly drawn) [Example Z685, 8-Ethynyl-1-((5S,5aS,68,9R)-1-Fluoro-12-(((2R)-2-Fluoro-6-Methylenetetrahydro-1H-Pyrrolizin-7a (5H)-Yl)Methoxy)-5-Methyl-5a,6,7,8,9,10-Hexahydro-5H-4-Oxa-3,10a,11,13,14-Pentaaza-6,9-Methanonaphtho[1,8-Ab]Heptalen-2-Yl) Isoquinolin-3-Amine]
IC50 ([1]; Homo sapiens): 30.3 nM | IC50 (AGS cells (KRAS G12D); Homo sapiens, 120 h): 145 nM | IC50 ([2]; Homo sapiens, ASPC1, 120 h): 258 nM
